Data taken from ChEMBL document CHEMBL3885861, “Open TG-GATES”.

Species on record: Rattus norvegicus
Test: Open TG-GATES - Regimen: Single
Type: toxicity, organism-based, Sprague-Dawley
Parameters: regimen Single, gender Male, age 6 weeks
Settings: in vivo, po, route gavage; for KIDNEY_L / KIDNEY_R / KIDNEY_TOTAL: tissue Kidney
[1] = 15 mg/kg, 9 h, tissue Blood, dose level Low
[2] = 15 mg/kg, 9 h, tissue Plasma, dose level Low
[3] = 15 mg/kg, 24 h, tissue Blood, dose level Low
[4] = 15 mg/kg, 24 h, tissue Plasma, dose level Low
[5] = 50 mg/kg, 3 h, tissue Blood, dose level Middle

**Q.** How did the APTT [1] turn out when `Oc1ncnc2[nH]ncc12` [ALLOPURINOL] was run?
**A.** Its APTT is 16.6 s.

**Q.** And the Bas [1]?
**A.** The Bas was 0%.

**Q.** What about the Eos [1] of the same molecule?
**A.** The Eos was 1.2%.

**Q.** What about the Fbg [1] of the same molecule?
**A.** The Fbg was 221.6 mg/dL.

**Q.** And the Hb [1]?
**A.** Its Hb is 13.6 g/dL.

**Q.** What about the Ht [1] of the same molecule?
**A.** The Ht was 40.7%.

**Q.** And the Lym [1]?
**A.** Its Lym is 66.4%.

**Q.** And the MCH [1]?
**A.** Its MCH is 21.7 pg.

**Q.** And the MCHC [1]?
**A.** The MCHC was 33.4%.

**Q.** What about the MCV [1] of the same molecule?
**A.** The MCV was 65 fL.

**Q.** And the Mono [1]?
**A.** The Mono was 11.8%.

**Q.** And the Neu [1]?
**A.** Its Neu is 20.4%.

**Q.** What about the PT [1] of the same molecule?
**A.** Its PT is 12.3 s.

**Q.** And the RBC [1]?
**A.** Its RBC is 626.6 x10_4/ul.

**Q.** And the Ret [1]?
**A.** Its Ret is 7.9%.

**Q.** And the WBC [1]?
**A.** The WBC was 92.7 x10_2/uL.

**Q.** What about the KIDNEY_L (15 mg/kg, 9 h, dose level Low) of the same molecule?
**A.** Its KIDNEY_L is 1 g.

**Q.** What about the KIDNEY_R (15 mg/kg, 9 h, dose level Low) of the same molecule?
**A.** The KIDNEY_R was 1 g.

**Q.** And the KIDNEY_TOTAL (15 mg/kg, 9 h, dose level Low)?
**A.** Its KIDNEY_TOTAL is 1.9 g.

**Q.** And the LIVER (15 mg/kg, 9 h, tissue Liver, dose level Low)?
**A.** Its LIVER is 9.1 g.

**Q.** And the ALP [2]?
**A.** The ALP was 837 IU/L.

**Q.** And the ALT [2]?
**A.** The ALT was 27.6 IU/L.

**Q.** And the AST [2]?
**A.** Its AST is 58.8 IU/L.

**Q.** And the BUN [2]?
**A.** Its BUN is 13 mg/dL.

**Q.** And the CRE [2]?
**A.** Its CRE is 0.4 mg/dL.

**Q.** What about the DBIL [2] of the same molecule?
**A.** Its DBIL is 0.042 mg/dL.

**Q.** And the GLC [2]?
**A.** Its GLC is 198.8 mg/dL.

**Q.** And the K [2]?
**A.** The K was 4.8 meq/L.

**Q.** What about the LDH [2] of the same molecule?
**A.** The LDH was 74.6 IU/L.

**Q.** What about the Na [2] of the same molecule?
**A.** The Na was 138.6 meq/L.

**Q.** What about the PL [2] of the same molecule?
**A.** The PL was 129.8 mg/dL.

**Q.** And the RALB [2]?
**A.** Its RALB is 3.8 g/dL.

**Q.** And the TBIL [2]?
**A.** The TBIL was 0.3 mg/dL.

**Q.** And the TC [2]?
**A.** Its TC is 69.2 mg/dL.

**Q.** And the TG [2]?
**A.** The TG was 53.2 mg/dL.

**Q.** What about the TP [2] of the same molecule?
**A.** The TP was 5.7 g/dL.

**Q.** What about the gamma-GTP [2] of the same molecule?
**A.** Its gamma-GTP is 1.4 IU/L.

**Q.** And the TERMINAL_BW (15 mg/kg, 24 h, dose level Low)?
**A.** The TERMINAL_BW was 224.8 g.

**Q.** And the APTT [3]?
**A.** The APTT was 16.1 s.

**Q.** And the Bas [3]?
**A.** The Bas was 0%.

**Q.** And the Eos [3]?
**A.** Its Eos is 1.2%.

**Q.** What about the Fbg [3] of the same molecule?
**A.** The Fbg was 213.8 mg/dL.

**Q.** And the Hb [3]?
**A.** Its Hb is 13.6 g/dL.

**Q.** What about the Ht [3] of the same molecule?
**A.** Its Ht is 40.8%.

**Q.** And the Lym [3]?
**A.** The Lym was 79.4%.

**Q.** And the MCH [3]?
**A.** The MCH was 21.8 pg.

**Q.** And the MCHC [3]?
**A.** Its MCHC is 33.3%.

**Q.** And the MCV [3]?
**A.** The MCV was 65.4 fL.

**Q.** And the Mono [3]?
**A.** The Mono was 7.2%.

**Q.** And the Neu [3]?
**A.** Its Neu is 12.4%.

**Q.** And the PT [3]?
**A.** The PT was 12.2 s.

**Q.** And the Plat [3]?
**A.** Its Plat is 113.4 x10_4/uL.

**Q.** What about the RBC [3] of the same molecule?
**A.** Its RBC is 623 x10_4/ul.

**Q.** And the Ret [3]?
**A.** The Ret was 7.9%.

**Q.** What about the WBC [3] of the same molecule?
**A.** The WBC was 93.3 x10_2/uL.

**Q.** What about the KIDNEY_L (15 mg/kg, 24 h, dose level Low) of the same molecule?
**A.** Its KIDNEY_L is 1 g.

**Q.** And the KIDNEY_R (15 mg/kg, 24 h, dose level Low)?
**A.** Its KIDNEY_R is 1 g.

**Q.** And the KIDNEY_TOTAL (15 mg/kg, 24 h, dose level Low)?
**A.** Its KIDNEY_TOTAL is 2 g.

**Q.** What about the ALP [4] of the same molecule?
**A.** The ALP was 884.8 IU/L.

**Q.** And the ALT [4]?
**A.** The ALT was 33.2 IU/L.

**Q.** And the AST [4]?
**A.** The AST was 61.6 IU/L.

**Q.** And the BUN [4]?
**A.** The BUN was 17.8 mg/dL.

**Q.** What about the CRE [4] of the same molecule?
**A.** The CRE was 0.5 mg/dL.

**Q.** What about the DBIL [4] of the same molecule?
**A.** The DBIL was 0.024 mg/dL.

**Q.** What about the GLC [4] of the same molecule?
**A.** The GLC was 187.4 mg/dL.

**Q.** And the IP [4]?
**A.** The IP was 8 mg/dL.

**Q.** What about the K [4] of the same molecule?
**A.** Its K is 5 meq/L.

**Q.** What about the LDH [4] of the same molecule?
**A.** The LDH was 85.2 IU/L.

**Q.** And the Na [4]?
**A.** The Na was 138.8 meq/L.

**Q.** And the PL [4]?
**A.** Its PL is 149.8 mg/dL.

**Q.** What about the RALB [4] of the same molecule?
**A.** The RALB was 3.6 g/dL.

**Q.** What about the TBIL [4] of the same molecule?
**A.** Its TBIL is 0.3 mg/dL.

**Q.** And the TC [4]?
**A.** Its TC is 78 mg/dL.

**Q.** And the TG [4]?
**A.** The TG was 91.4 mg/dL.

**Q.** What about the TP [4] of the same molecule?
**A.** Its TP is 5.7 g/dL.

**Q.** What about the gamma-GTP [4] of the same molecule?
**A.** Its gamma-GTP is 1.8 IU/L.

**Q.** What about the TERMINAL_BW (50 mg/kg, 3 h, dose level Middle) of the same molecule?
**A.** Its TERMINAL_BW is 210.9 g.

**Q.** What about the APTT [5] of the same molecule?
**A.** The APTT was 16.6 s.

**Q.** And the Bas [5]?
**A.** Its Bas is 0%.
